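Tested at 5 concentrations; 48 h exposure; 96-well plates; endpoints linearly interpolated, else capped at highest concentration. TGI marks complete inhibition of growth.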
Tests used:
Experiment in all cases: NCI tumour cell line growth inhibition, 48 h
A498 renal = test system: A498 renal
HT29 colon = test system: HT29 colon
SK-MEL-5 melanoma = test system: SK-MEL-5 melanoma
MALME-3M melanoma = test system: MALME-3M melanoma
SW-620 colon = test system: SW-620 colon
HOP-92 NSCLC = test system: HOP-92 NSCLC
MCF7 breast = test system: MCF7 breast
SF-295 CNS = test system: SF-295 CNS
EKVX NSCLC = test system: EKVX NSCLC
DU-145 prostate = test system: DU-145 prostate
UO-31 renal = test system: UO-31 renal
SF-268 CNS = test system: SF-268 CNS
HL-60(TB) leukemia = test system: HL-60(TB) leukemia
UACC-257 melanoma = test system: UACC-257 melanoma
OVCAR-3 ovarian = test system: OVCAR-3 ovarian
NCI-H226 lung = test system: NCI-H226 lung
IGROV1 ovarian = test system: IGROV1 ovarian
NCI-H460 lung = test system: NCI-H460 lung
T-47D breast = test system: T-47D breast
UACC-62 melanoma = test system: UACC-62 melanoma
CAKI-1 renal = test system: CAKI-1 renal
SK-OV-3 ovarian = test system: SK-OV-3 ovarian
U251 CNS = test system: U251 CNS
CCRF-CEM leukemia = test system: CCRF-CEM leukemia
PC-3 prostate = test system: PC-3 prostate
K-562 leukemia = test system: K-562 leukemia
HCT-116 colon = test system: HCT-116 colon
HOP-62 NSCLC = test system: HOP-62 NSCLC
NCI/ADR-RES ovarian = test system: NCI/ADR-RES ovarian
COLO 205 colon = test system: COLO 205 colon
SNB-19 CNS = test system: SNB-19 CNS
OVCAR-5 ovarian = test system: OVCAR-5 ovarian
SR leukemia = test system: SR leukemia
MOLT-4 leukemia = test system: MOLT-4 leukemia
SN12C renal = test system: SN12C renal
BT-549 breast = test system: BT-549 breast
SF-539 CNS = test system: SF-539 CNS
MDA-MB-435 = test system: MDA-MB-435
HCT-15 colon = test system: HCT-15 colon
TK-10 renal = test system: TK-10 renal
LOX IMVI melanoma = test system: LOX IMVI melanoma
RXF 393 renal = test system: RXF 393 renal
NCI-H23 lung = test system: NCI-H23 lung
SNB-75 CNS = test system: SNB-75 CNS
SK-MEL-28 melanoma = test system: SK-MEL-28 melanoma
HS 578T breast = test system: HS 578T breast
M14 melanoma = test system: M14 melanoma
SK-MEL-2 melanoma = test system: SK-MEL-2 melanoma
A549 NSCLC = test system: A549 NSCLC
OVCAR-8 ovarian = test system: OVCAR-8 ovarian
MDA-N = test system: MDA-N
HCC-2998 colon = test system: HCC-2998 colon
NCI-H522 lung = test system: NCI-H522 lung
786-0 renal = test system: 786-0 renal
RPMI-8226 leukemia = test system: RPMI-8226 leukemia
MDA-MB-231 breast = test system: MDA-MB-231 breast
KM12 colon = test system: KM12 colon
ACHN renal = test system: ACHN renal
OVCAR-4 ovarian = test system: OVCAR-4 ovarian

O=C(N[C@H]1c2ccsc2/C(=N/O)[C@H]1O)C(F)(F)F
TGI (A498 renal): > 100 µM
TGI (HT29 colon): > 100 µM
TGI (SK-MEL-5 melanoma): > 100 µM
TGI (MALME-3M melanoma): > 100 µM
TGI (SW-620 colon): > 100 µM
TGI (HOP-92 NSCLC): > 100 µM
TGI (MCF7 breast): > 100 µM
TGI (SF-295 CNS): > 100 µM
TGI (EKVX NSCLC): > 100 µM
TGI (DU-145 prostate): > 100 µM
TGI (UO-31 renal): > 100 µM
TGI (SF-268 CNS): > 100 µM
TGI (HL-60(TB) leukemia): > 100 µM
TGI (UACC-257 melanoma): > 100 µM
TGI (OVCAR-3 ovarian): > 100 µM
TGI (NCI-H226 lung): > 100 µM
TGI (IGROV1 ovarian): > 100 µM
TGI (NCI-H460 lung): > 100 µM
TGI (T-47D breast): > 100 µM
TGI (UACC-62 melanoma): > 100 µM
TGI (CAKI-1 renal): > 100 µM
TGI (SK-OV-3 ovarian): > 100 µM
TGI (U251 CNS): > 100 µM
TGI (CCRF-CEM leukemia): > 100 µM
TGI (PC-3 prostate): > 100 µM
TGI (K-562 leukemia): > 100 µM
TGI (HCT-116 colon): > 100 µM
TGI (HOP-62 NSCLC): > 100 µM
TGI (NCI/ADR-RES ovarian): > 100 µM
TGI (COLO 205 colon): > 100 µM
TGI (SNB-19 CNS): > 100 µM
TGI (OVCAR-5 ovarian): > 100 µM
TGI (SR leukemia): > 100 µM
TGI (MOLT-4 leukemia): > 100 µM
TGI (SN12C renal): > 100 µM
TGI (BT-549 breast): > 100 µM
TGI (SF-539 CNS): > 100 µM
TGI (MDA-MB-435): > 100 µM
TGI (HCT-15 colon): > 100 µM
TGI (TK-10 renal): > 100 µM
TGI (LOX IMVI melanoma): > 100 µM
TGI (RXF 393 renal): > 100 µM
TGI (NCI-H23 lung): > 100 µM
TGI (SNB-75 CNS): > 100 µM
TGI (SK-MEL-28 melanoma): > 100 µM
TGI (HS 578T breast): > 100 µM
TGI (M14 melanoma): > 100 µM
TGI (SK-MEL-2 melanoma): > 100 µM
TGI (A549 NSCLC): > 100 µM
TGI (OVCAR-8 ovarian): > 100 µM
TGI (MDA-N): > 100 µM
TGI (HCC-2998 colon): > 100 µM

C[C@]12CC[C@H](O)CC1=CC[C@@H]1[C@@H]2CC[C@]2(C)/C(=N/OCCN3CCCC3)CC[C@@H]12
TGI (A498 renal): 29.8 µM
TGI (HT29 colon): 10.3 µM
TGI (SK-MEL-5 melanoma): 28 µM
TGI (MALME-3M melanoma): 27.1 µM
TGI (SW-620 colon): 31.1 µM
TGI (MCF7 breast): 44.9 µM
TGI (SF-295 CNS): 40.6 µM
TGI (EKVX NSCLC): 49.2 µM
TGI (NCI-H522 lung): 25.7 µM
TGI (UO-31 renal): 35.3 µM
TGI (SF-268 CNS): > 100 µM
TGI (HL-60(TB) leukemia): 23 µM
TGI (UACC-257 melanoma): 27.7 µM
TGI (OVCAR-3 ovarian): 31.1 µM
TGI (NCI-H226 lung): 30 µM
TGI (786-0 renal): 33.6 µM
TGI (IGROV1 ovarian): 34.3 µM
TGI (NCI-H460 lung): 24.8 µM
TGI (UACC-62 melanoma): 30.1 µM
TGI (CAKI-1 renal): 40.7 µM
TGI (U251 CNS): 36.2 µM
TGI (PC-3 prostate): 39.4 µM
TGI (K-562 leukemia): 21.6 µM
TGI (RPMI-8226 leukemia): 38.4 µM
TGI (HCT-116 colon): 28.6 µM
TGI (HOP-62 NSCLC): 53.2 µM
TGI (NCI/ADR-RES ovarian): 52.7 µM
TGI (COLO 205 colon): 30.1 µM
TGI (SNB-19 CNS): 72.1 µM
TGI (OVCAR-5 ovarian): 96.6 µM
TGI (SR leukemia): 35.5 µM
TGI (MOLT-4 leukemia): 34.8 µM
TGI (SN12C renal): 93.6 µM
TGI (BT-549 breast): 37.6 µM
TGI (MDA-MB-231 breast): 36.9 µM
TGI (KM12 colon): 26.9 µM
TGI (SF-539 CNS): 28.1 µM
TGI (MDA-MB-435): 29.4 µM
TGI (HCT-15 colon): 28.8 µM
TGI (TK-10 renal): 63.6 µM
TGI (LOX IMVI melanoma): 33.4 µM
TGI (RXF 393 renal): 29.3 µM
TGI (NCI-H23 lung): 27.1 µM
TGI (SNB-75 CNS): 45 µM
TGI (SK-MEL-28 melanoma): 30.6 µM
TGI (ACHN renal): 68.2 µM
TGI (HS 578T breast): 83.8 µM
TGI (SK-MEL-2 melanoma): 45.1 µM
TGI (OVCAR-4 ovarian): 36 µM
TGI (OVCAR-8 ovarian): 30.7 µM
TGI (MDA-N): 34.3 µM
TGI (HCC-2998 colon): 37.1 µM
